According to patent US8344115B2, “Immunoassay for specific determination of S-adenosylmethionine and analogs thereof in biological samples” (priority 2008, dated 2013):

Test system: Rabbit antiserum (raised against AdaM-BSA)
Assay: Assay 1: end point competitive ELISA with rabbit antibody and antibody specificity (goat anti-rabbit strips, AdaM-HRP conjugate)
Assay type: binding
Details: rabbit antiserum 1:12,500, duplicate
Procedure: New Zealand White rabbits were used for polyclonal antibody production. Immunization (1 ml total volume) was carried out with subcutaneous injections at multiple sites. Initial injection utilizes 1:1 mixture of complete Freund Adjuvant and AdaM-BSA conjugate solution in PBS upon emulsification. Subsequent injections use incomplete Freund adjuvant. The immunization was on 21 days cycle schedule, the animals were bleed from the ear artery (rabbit sedated) between 7 to 14 days after injection, normally on the 10th day. The blood was then processed to serum via centrifugation to remove red blood cells and clots. Immune response was detected after three booster injections. See FIG. 1 for a typical positive antibody response (indicated by antibody titer determination) wherein NA005 and 006 are animal designation numbers, 0 represents pre-bleed, 1 represents the first bleed after 4 immunizations.
4-1. Assay 1 Assay (End Point) with Rabbit Antibody and Antibody Specificity
• 1. Goat anti-rabbit coated microtiter well strips. • 2. —Rabbit antiserum diluted in incubation buffer (IB: 10 mM phosphate, 150 mM NaCl, 0.2% BSA, 0.1% Tween 20, 0.1% Proclin, pH 7.4) • 3. An IB+Tris (100 mM) buffer, pH 8.5 • 4. Samples: • (a) SAMe toluenesulfonate (tosylate) disulfate at concentration from […] to 1.4×10^−5 M in IB containing BSA 0.5%, and use 0.5% BSA-IB as zero sample. • (b) SAH at concentration from zero and 1.4×10^−8 to 1.4×10^−4 M. • (c) Adenosine at concentration from zero and 5.6×10^−9 M. to 5.6×10^−5 M • (d) Guanosine at concentration from zero and 3.0×10^−9 M to 3.0×10^−5 M • 5. AdaM-HRP conjugate (diluted to HRP concentration @30 μg/mL) in IB. • 6. —HRP substrate: one reagent substrate solution NeA-blue Tetramethylbenzidine Substrate, Clinical Science Products, Inc., Mansfield, Mass. • 7. 1N phosphoric acid Procedure: • 1. —The rabbit antiserum was diluted 1:12,500 in IB and pre-incubated (60 μl/well) in goat-antirabbit coated strips for at least one hour. • 2. Excess antibody was then decanted, washed, and blot dry. • 3. To each well was then added 10 μl of the pH 8.5 IB+Tris buffer followed by 25 μl of samples. The mixture was incubated on a orbital shaker for 25 min. All samples were tested in duplicate except the zero sample, in 6 wells. • 4. Twenty five microliter (25 μl) of AdaM-HRP conjugate solution was then added and incubated for additional 25 min with shaking. • 5. The assay mixture was then decanted, washed, and blot dry. • 6. To each well was added 60 μl/well of HRP substrate and incubate for 15 min. • 7. Stop the substrate development with 120 μl/well of 1N phosphoric acid. • 8. Read OD450 on a Perkin Elmer Lambda (microtiter plate) Reader. Results: (See Table 1 below)

## Nc1nc2c(ncn2[C@@H]2O[C@H](CO)[C@@H](O)[C@H]2O)c(=O)[nH]1 [Guanosine]
Sample concentration 3.0E−5 (M)
  OD450: 0.371
Sample concentration 3.0E−6 (M)
  OD450: 0.383
Sample concentration 3.0E−7 (M)
  OD450: 0.374
Sample concentration 3.0E−8 (M)
  OD450: 0.324
Sample concentration 3.0E−9 (M)
  OD450: 0.350

## Nc1ncnc2c1ncn2[C@@H]1O[C@H](CO)[C@@H](O)[C@H]1O [Adenosine]
Sample concentration 5.6E−5 (M)
  OD450: 0.256
Sample concentration 5.6E−6 (M)
  OD450: 0.300
Sample concentration 5.6E−7 (M)
  OD450: 0.305
Sample concentration 5.6E−8 (M)
  OD450: 0.339
Sample concentration 5.6E−9 (M)
  OD450: 0.342

## Nc1ncnc2c1ncn2[C@@H]1O[C@H](CSCC[C@H](N)C(=O)O)[C@@H](O)[C@H]1O [SAH, S-Adenosylhomocysteine]
Sample concentration 1.4E−4 (M)
  OD450: 0.209
Sample concentration 1.4E−5 (M)
  OD450: 0.244
Sample concentration 1.4E−6 (M)
  OD450: 0.293
Sample concentration 1.4E−7 (M)
  OD450: 0.323
Sample concentration 1.4E−8 (M)
  OD450: 0.337
